# From ChEMBL document CHEMBL3608244, “Left-Hand Side Exploration of Novel Bacterial Topoisomerase Inhibitors to Improve Selectivity against hERG Binding” (ACS Med Chem Lett, 2015)
# Key:
# Assay type in all cases: functional
# [1] = system: Mycobacterium tuberculosis; experiment: Antimycobacterial activity against 6-((1-(2-(7-chloro-2-oxo-1,8-naphthyridin-1(2H)-yl)ethyl)piperidin-4-ylamino)methyl)-2H-pyrido[3,2-b][1,4]oxazin-3(4H)-one resistant Mycobacterium tuberculosis H37Rv harboring DNA gyraseA A74V mutant incubated for 7 days by microdilution method
# [2] = system: Mycobacterium tuberculosis; experiment: Antimycobacterial activity against 1-(2-(4-((5-chloro-6-methylpyridin-3-yl)methylamino)piperidin-1-yl)ethyl)-7-fluoro-1,5-naphthyridin-2(1H)-one resistant Mycobacterium tuberculosis H37Rv harboring DNA gyraseA D89N mutant incubated for 7 days by microdilution method
# [3] = system: Mycobacterium tuberculosis; experiment: Antimycobacterial activity against moxifloxacin resistant Mycobacterium tuberculosis H37Rv harboring DNA gyraseA G88N mutant incubated for 7 days by microdilution method
# [4] = system: Mycobacterium tuberculosis; experiment: Ratio of MIC for 6-((1-(2-(7-chloro-2-oxo-1,8-naphthyridin-1(2H)-yl)ethyl)piperidin-4-ylamino)methyl)-2H-pyrido[3,2-b][1,4]oxazin-3(4H)-one resistant Mycobacterium tuberculosis H37Rv harboring DNA gyraseA A74V mutant to MIC for Mycobacterium tuberculosis H37Rv ATCC 27294
# [5] = system: Mycobacterium tuberculosis; experiment: Ratio of MIC for 1-(2-(4-((5-chloro-6-methylpyridin-3-yl)methylamino)piperidin-1-yl)ethyl)-7-fluoro-1,5-naphthyridin-2(1H)-one resistant Mycobacterium tuberculosis H37Rv harboring DNA gyraseA D89N mutant to MIC for Mycobacterium tuberculosis H37Rv ATCC 27294
SMILES,MIC [1] [µM],MIC [2] [µM],MIC [3] [µM],Ratio [4],Ratio [5]
Cc1ncc(CNC2CCN(CCn3c(=O)ccc4ncc(F)cc43)CC2)cc1Cl,2,>100,<0.19,–,–
O=C(O)c1cn(C2CC2)c2cc(N3CCNCC3)c(F)cc2c1=O [CIPROFLOXACIN],0.5,16,8,–,–
O=C1COc2ccc(CNC3CCN(CCn4c(=O)ccc5ccc(Oc6cccnc6)nc54)CC3)nc2N1,8,>100,0.78,>25,>25
O=C1COc2ccc(CNC3CCN(CCn4c(=O)ccc5ccc(Cl)nc54)CC3)nc2N1,4,>100,<0.19,–,–
CO[C@H]1/C=C/O[C@@]2(C)Oc3c(C)c(O)c4c(O)c(c(/C=N/N5CCN(C)CC5)c(O)c4c3C2=O)NC(=O)/C(C)=C\C=C\[C@H](C)[C@H](O)[C@@H](C)[C@@H](O)[C@@H](C)[C@H](OC(C)=O)[C@@H]1C [RIFAMPIN],0.008,–,0.008,–,–
O=C1COc2ccc(CN[C@@H]3CCN(CCn4c(=O)ccc5ncc(Oc6cccnc6)cc54)C[C@@H]3F)nc2N1,50,>100,0.39,–,–
COc1c(N2C[C@@H]3CCCN[C@@H]3C2)c(F)cc2c(=O)c(C(=O)O)cn(C3CC3)c12 [MOXIFLOXACIN],0.25,2,4,–,–
NNC(=O)c1ccncc1 [ISONIAZID],0.06,0.03,0.06,–,–
O=C1COc2ccc(CNC3CCN(CCn4c(=O)ccc5ccc(Oc6cncnc6)nc54)CC3)nc2N1,50,>100,0.06,>25,>25
